For data set [1] the following is noted: mouse, in vivo.
In data set [2] the test system is colon epithelium. The experiment in a line: Epithelial proliferation in the colon by flow cytometry using Ki67. It counts as in vivo. The following applies: mice, drug in drinking water 8 days; control 21%. On the procedure:
Toxicity studies and histology. […] The body weight was measured daily. After 8 days the animals were sacrificed and the epithelial proliferation in the colon was measured by flow cytometry using Ki67. Box plots show median and whiskers are min and max values. The p values were generated using a one-way ANOVA with Dunnett's multiple comparisons test. For FIGS. 5A and 5C, n=5.
A general note: In flow cytometry, cells or beads pass a laser one at a time.

For data set [3], the target named is T1, PDE5 (Homo sapiens, UniProt O76074).
T1 construct: host or cells: LS-174T colon cancer reporter cell line
The experiment in a line: Reporter cell assay: LS-174T cells expressing PKG2 and PDE5, low-dose linaclotide, phospho-VASP Western blot. It counts as cell-based. The following applies: LS-174T reporter cells. The source says: Results shown are representative of at least 3 independent experiments.
Western blot and reporter cell lines. […] Results shown are representative of at least 3 independent experiments.

For `CCCc1nn(C)c2c(=O)[nH]c(-c3cc(S(=O)(=O)N4CCNCC4)ccc3OCC)nc12` [desmethyl-sildenafil, reference compound], in data set [1], the “entry from the gut into plasma, dose curve” value is “increased dramatically in the plasma”.
As for `CCCc1nn(C)c2c(=O)[nH]c(-c3cc(S(=O)(=O)N4CCN(C)CC4)ccc3OCC)nc12` [sildenafil, reference compound], in data set [2], the “total Ki67 positive cells in colon epithelium” value is on record as 15%.
acetyl-sildenafil: in data set [3], the “potency of PDE5 inhibitor activity relative to sildenafil (VASP phosphorylation)” value is reported as “equally potent as the parent compound”.

(Values after US12662485B2, “Substituted pyrazolo[4,3-D]pyrimidines as gut-targeted phosphodiesterase inhibitors” (priority 2020, dated 2026).)
